Literature values, collected in PMC11949389 (Polish Journal of Microbiology, 2025).
≈ marks a conversion by molar mass, not a printed value. Like-named read-outs stand apart in the source and are kept apart here.

Experiments:
Vibrio anguillarum = conditions: ref Rossi et al. 2021
Staphylococcus sp. = conditions: ref Caballero Gómez et al. 2022
Enterococcus sp. = conditions: ref Caballero Gómez et al. 2022
Streptococcus suis = conditions: ref de Aguiar et al. 2019
Pseudomonas sp. = conditions: ref Caballero Gómez et al. 2022
[1] = tested on: Vibrio anguillarum, and Vibrio harveyi; conditions: ref Rossi et al. (2021)
Vibrio harveyi = conditions: ref Rossi et al. 2021
[2] = tested on: Enterococcus, Pseudomonas, and Staphylococcus strains; conditions: ref Caballero Gómez et al. (2022)
Malassezia pachydermatis = conditions: ref Schlemmer et al. 2019, Sim et al. 2019
Escherichia coli = conditions: antibiotic-sensitive E. coli; ref Owen et al. (2019)
[3] = tested on: Vancomycin-sensitive Enterococcus (VSE)
[4] = tested on: C. albicans and co-isolated bacteria; conditions: carvacrol combined with cuminaldehyde; ref Touil et al. (2020)
[5] = tested on: Methicillin-susceptible Staphylococcus aureus; conditions: ref Owen et al. 2019
[6] = tested on: amphotericin B-resistant C. albicans; conditions: varying among Candida isolates; ref Touil et al. (2020)
[7] = tested on: bacteria co-isolated with C. albicans; conditions: ref Touil et al. (2020)
[8] = tested on: Vancomycin-resistant Enterococcus (VRE); conditions: vancomycin-resistant enterococci strains; ref Owen et al. (2019)
[9] = tested on: Ciprofloxacin-resistant Escherichia coli; conditions: resistant E. coli strains; ref Owen et al. (2019)
bovine mastitis = conditions: versus antibiotic treatment, ref Guo et al. 2023
Acinetobacter baumannii [10] = conditions: ref Choudhary et al. 2022
Klebsiella pneumoniae = conditions: ref Sayout et al. 2020, de Souza et al. 2021, Kwiatkowski et al. 2022
Klebsiella oxytoca = conditions: ref Sayout et al. 2020
Staphylococcus aureus = conditions: for MIC/Sensitivity: Staphylococcus aureus, ref Kwiatkowski et al. 2020, Sayout et al. 2020, Sousa Silveira et al. 2020, Macêdo et al. 2022, Noumi et al. 2023, Sharma et al. 2023; for MIC: S. aureus
Acinetobacter baumannii [11] = conditions: for MIC/Sensitivity: ref Sayout et al. 2020
[12] = tested on: Mupirocin-susceptible Staphylococcus aureus; conditions: ref Kwiatkowski et al. 2019
[13] = tested on: Mupirocin-resistant Staphylococcus aureus; conditions: ref Kwiatkowski et al. 2019
Salmonella spp. = conditions: ref Sayout et al. 2020
[14] = tested on: Ciprofloxacin-resistant Pseudomonas aeruginosa; conditions: resistant P. aeruginosa strains; ref Owen et al. (2019)
Enterobacter cloacae = conditions: ref Sayout et al. 2020
Enterobacter aerogenes = conditions: ref Sayout et al. 2020
Proteus mirabilis = conditions: ref Sim et al. 2019
Candida krusei = conditions: Candida krusei; ref Sharifzadeh et al. 2019; Iraji et al. 2020; Biernasiuk et al. 2022; Stringaro et al. 2022
[15] = tested on: Staphylococcus pseudintermedius; conditions: Staphylococcus pseudintermedius; ref Sim et al. 2019
Candida tropicalis = conditions: Candida tropicalis; ref Iraji et al. 2020; Stringaro et al. 2022
HIV-1 = conditions: HIV-1; ref Mediouni et al. (2020)
[16] = tested on: β-haemolytic Streptococcus spp.; conditions: ref Sim et al. 2019
staphylococcal isolates = conditions: ref Sim et al. 2019
Campylobacter jejuni [17] = conditions: for MIC/Sensitivity: Campylobacter jejuni, ref Šimunović et al. 2020; for MIC: ref Šimunović et al. (2020)
Candida albicans [18] = conditions: Candida albicans; ref Sharifzadeh et al. 2019; Iraji et al. 2020; Shaban et al. 2020; Stringaro et al. 2022; Biernasiuk et al. 2022
TetK efflux pump = conditions: S. aureus, ref Sousa Silveira et al. (2020)
Candida albicans [19] = conditions: ref Shaban et al. 2020
Candida auris [20] = conditions: Candida auris; ref Shaban et al. 2020
Salmonella Typhimurium = conditions: ref Giovagnoni et al. (2020)
Salmonella Thyphimurium = conditions: ref Giovagnoni et al. 2020
Candida auris [21] = conditions: ref Shaban et al. 2020
Candida species = conditions: ref Stringaro et al. (2022)
Candida glabrata = conditions: Candida glabrata; ref Sharifzadeh et al. 2019; Iraji et al. 2020; Biernasiuk et al. 2022; Stringaro et al. 2022
[22] = tested on: Chikungunya virus (CHIKV); conditions: ref Kumar et al. (2021)
[23] = tested on: Methicillin-resistant Staphylococcus aureus; conditions: Methicillin-resistant Staphylococcus aureus; ref Owen et al. 2019
influenza H1N1 = conditions: 20 μg/ml; ref Panagiotopoulos et al. (2021)
Campylobacter jejuni [24] = tested on: Campylobacter jejuni

For O=C/C=C/c1ccccc1 [Cinnamaldehyde], the MIC/Sensitivity (Vibrio anguillarum) is listed as 555.75 mg/mL (≈ 4210 mM), the MIC/Sensitivity (Staphylococcus sp.) is listed as 0.01 to 0.05 mg/mL and the MIC/Sensitivity (Enterococcus sp.) is listed as 0.01 to 0.05 mg/mL. The MIC/Sensitivity (Streptococcus suis) was 0.15625 to 0.3125 mg/mL, the MIC/Sensitivity (Pseudomonas sp.) was 0.01 to 0.05 mg/mL and the MIC [1] was 0.94 to 7.5 mM. The MIC/Sensitivity (Vibrio harveyi) was 278.616 mg/mL (≈ 2110 mM), the MIC [2] was 0.01 to 0.05 mg/mL and the MIC/Sensitivity (Malassezia pachydermatis) was 0.0025 to 0.64 mg/mL.

In the case of CC(C)c1ccc(C=O)cc1 [Cuminaldehyde], the MIC (Escherichia coli) is given as 2.10 mM (≈ 311 µg/mL), the MIC ([3]; vancomycin-susceptible enterococci (VSE), ref Owen et al. (2019)) is given as 134.41 mM (≈ 19900 µg/mL) and the MIC in combination [4] is given as 500–2,000 μg/ml. The MIC/Sensitivity [5] was 4979.52 mg/mL (≈ 33600 mM), the MIC [6] was 2 to 4 mg/mL and the MIC [7] was 1,000–4,000 μg/ml. For the same compound, the MIC [8] was 537.65 mM (≈ 79700 µg/mL) and the MIC [9] was 8.40 mM (≈ 1240 µg/mL).

For CC(C)=CCC/C(C)=C/CO [Geraniol], the MIC/Sensitivity (Staphylococcus sp.) is listed as 0.1 to 0.4 mg/mL, the therapeutic effect (bovine mastitis) is listed as “equivalent therapeutic effects” and the MIC/Sensitivity (Enterococcus sp.) is listed as 0.1 to 0.35 mg/mL. For the same compound, the Mechanisms of action (Acinetobacter baumannii [10]) was “• Reduction in exopolysaccharide production • Disruption and inhibition of biofilm • Downregulation of csuE gene”, the MIC/Sensitivity (Klebsiella pneumoniae) was 1.74 mg/mL (≈ 11.3 mM) and the MIC/Sensitivity (Pseudomonas sp.) was 0.1 to 0.4 mg/mL. For the same compound, the MIC [1] was 0.94 to 7.5 mM.

In the case of C=CC(C)(O)CCC=C(C)C (centres unmarked) [Linalool], the MIC/Sensitivity (Klebsiella oxytoca) is listed as 0.00144 mg/mL (≈ 0.00934 mM), the MIC/Sensitivity (Staphylococcus aureus) is listed as 0.00288 to 6.8 mg/mL and the “reduction in vancomycin’s MIC” value ([3]; binary combinations with vancomycin, VSE, ref Owen et al. (2020)) is listed as “four to eight-fold reduction”. The MIC/Sensitivity (Klebsiella pneumoniae) was 0.00383 mg/mL (≈ 0.0248 mM), the MIC/Sensitivity (Acinetobacter baumannii [11]) was 0.00144 mg/mL (≈ 0.00934 mM) and the MIC/Sensitivity [12] was 6.8 mg/mL (≈ 44.1 mM). For the same compound, the MIC/Sensitivity [13] was 2.83 mg/mL (≈ 18.3 mM), the “activity at the tested concentrations” value [1] was “no activity” and the MIC/Sensitivity (Salmonella spp.) was 0.00288 mg/mL (≈ 0.0187 mM). The MIC [14] was 912.90 mM (≈ 141000 µg/mL), the MIC (Pseudomonas aeruginosa; antibiotic-sensitive P. aeruginosa, ref Owen et al. (2019)) was 228.20 mM (≈ 35200 µg/mL) and the MIC/Sensitivity (Enterobacter cloacae) was 0.00192 mg/mL (≈ 0.0124 mM). For the same compound, the MIC/Sensitivity (Enterobacter aerogenes) was 0.00144 mg/mL (≈ 0.00934 mM).

For Cc1ccc(C(C)C)c(O)c1 [Thymol], the MIC/Sensitivity (Staphylococcus sp.) is given as 0.2 to 0.4 mg/mL, the MIC/Sensitivity (Enterococcus sp.) is given as 0.2 to 0.45 mg/mL and the MIC90 (Proteus mirabilis) is given as 0.2 to 0.292 mg/mL. For the same compound, the MIC/Sensitivity (Proteus mirabilis) was 0.2 mg/mL (≈ 1.33 mM), the MIC/Sensitivity (Candida krusei) was 0.39 mg/mL (≈ 2.6 mM) and the MIC/Sensitivity [15] was 0.1 to 0.2 mg/mL. For the same compound, the MIC (Staphylococcus aureus; ref Sharma et al. (2023)) was 0.125 to 0.25 mg/mL, the MIC (Staphylococcus aureus; ref Sousa Silveira et al. (2020)) was 0.072 mg/mL (≈ 0.479 mM) and the MIC/Sensitivity (Staphylococcus aureus) was 0.072 to 0.8 mg/mL. For the same compound, the MIC/Sensitivity (Candida tropicalis) was 0.39 mg/mL (≈ 2.6 mM), the MIC/Sensitivity (Streptococcus suis) was 0.15625 mg/mL (≈ 1.04 mM) and the IC50 (HIV-1) was 25.2 µM. The MIC/Sensitivity ([16]; β-haemolytic Streptococcus spp.) was 0.2 to 0.4 mg/mL, the MIC90 ([16]; β-hemolytic Streptococcus) was 0.292 to 0.4 mg/mL and the MIC90 (staphylococcal isolates) was 0.146 to 0.2 mg/mL. The MIC/Sensitivity (Klebsiella pneumoniae) was 0.78 mg/mL (≈ 5.19 mM), the FICI (Acinetobacter baumannii [11]; combined with ciprofloxacin, ref Aleksic Sabo et al. (2021)) was 0.25–0.32 and the MIC/Sensitivity (Campylobacter jejuni [17]) was 0.03125 mg/mL (≈ 0.208 mM). For the same compound, the MIC (Campylobacter jejuni [17]) was 31.25 µg/mL (≈ 0.208 mM), the MIC/Sensitivity (Candida albicans [18]) was 0.195 to 0.625 mg/mL and the MIC/Sensitivity (Pseudomonas sp.) was 0.1 to 0.3 mg/mL. For the same compound, the MIC [1] was 0.94 to 7.5 mM, the efflux pump inhibition (TetK efflux pump) was “did not act as efflux pump inhibitors” and the MIC90 (Pseudomonas aeruginosa; P. aeruginosa, ref Sim et al. 2019) was 0.8 mg/mL (≈ 5.33 mM). The MIC/Sensitivity (Pseudomonas aeruginosa; Pseudomonas aeruginosa, ref Owen et al. 2019, Sim et al. 2019, Noumi et al. 2023) was 0.4 to 0.8 mg/mL, the Mechanisms of action (Candida albicans [19]) was “• Reduced proteinase production” and the MIC (Candida auris [20]) was 0.312 mg/mL (≈ 2.08 mM). The MIC/Sensitivity (Candida auris [20]) was 0.312 mg/mL (≈ 2.08 mM), the MIC (Salmonella Typhimurium) was 1.87 mM (≈ 281 µg/mL) and the Mechanisms of action (Salmonella Thyphimurium) was “• Anti-inflammatory effects • Anti-oxidant properties • Enhanced epithelial barrier integrity • Reduction of bacterial translocation • Improved transepithelial electrical resistance • Inhibited bacterial growth”. The Mechanisms of action (Candida auris [21]) was “• Reduced proteinase production and host cell adherence”, the MIC/Sensitivity (Malassezia pachydermatis) was 0.01 to 0.8 mg/mL and the MIC (Candida species) was 0.195 to 0.39 mg/mL. The MIC/Sensitivity (Candida glabrata) was 0.39 mg/mL (≈ 2.6 mM).

In the case of CC1=CC(=O)C(C(C)C)=CC1=O [Thymoquinone], the MIC/Sensitivity (Campylobacter jejuni [17]) is listed as 0.03125 mg/mL (≈ 0.19 mM), the MIC (Campylobacter jejuni [17]) is listed as 31.25 µg/mL (≈ 0.19 mM) and the EC50 ([22]; CHIKV replication) is listed as 4.48 µM. For the same compound, the “reduction of CHIKV titer” value ([22]; plaque reduction assay, 20 μM) was “over 90%”.

In the case of Cc1ccc(C(C)C)cc1 [p-Cymene], the MIC/Sensitivity (Staphylococcus aureus) is given as 0.01025 mg/mL (≈ 0.0764 mM), the MIC/Sensitivity (Klebsiella pneumoniae) is given as 0.01025 mg/mL (≈ 0.0764 mM) and the MIC/Sensitivity (Acinetobacter baumannii [11]) is given as 0.00513 mg/mL (≈ 0.0382 mM). For the same compound, the MIC/Sensitivity (Campylobacter jejuni [17]) was 1 mg/mL (≈ 7.45 mM), the MIC (Campylobacter jejuni [17]) was 1,000 μg/ml and the MIC/Sensitivity [5] was 1075.1022 mg/mL (≈ 8010 mM). The MIC/Sensitivity [23] was 2150.2044 mg/mL (≈ 16000 mM), the “effect on influenza H1N1” value (influenza H1N1) was “reduced virus protein expression and impaired nuclear translocation” and the MIC/Sensitivity (Enterobacter cloacae) was 0.0041 mg/mL (≈ 0.0305 mM). The efflux pump inhibition (Campylobacter jejuni [24]; C. jejuni, ref Šimunović et al. (2020)) was “inhibited efflux pumps” and the Mechanisms of action (Campylobacter jejuni [24]; Campylobacter jejuni, ref Šimunović et al. 2020) was “• Inhibition of efflux pump”.
